In paper PMC6418866 (Journal of the American Chemical Society, 2019):
Like-named read-outs stand apart in the source and are kept apart here.

What was measured:
[1] = target: recombinant human GAA (rGAA, Myozyme) (Homo sapiens, UniProt P10253); assay: In vitro inhibition of rGAA; conditions: IC50 ratio
[2] = target: T1, recombinant human GBA (rGBA, Cerezyme) (Homo sapiens, UniProt P04062, R534H); conditions: read-out: Apparent IC50, rGBA; 3 h preincubation; cited from earlier work
T1 sequence (P04062 40-536 R534H): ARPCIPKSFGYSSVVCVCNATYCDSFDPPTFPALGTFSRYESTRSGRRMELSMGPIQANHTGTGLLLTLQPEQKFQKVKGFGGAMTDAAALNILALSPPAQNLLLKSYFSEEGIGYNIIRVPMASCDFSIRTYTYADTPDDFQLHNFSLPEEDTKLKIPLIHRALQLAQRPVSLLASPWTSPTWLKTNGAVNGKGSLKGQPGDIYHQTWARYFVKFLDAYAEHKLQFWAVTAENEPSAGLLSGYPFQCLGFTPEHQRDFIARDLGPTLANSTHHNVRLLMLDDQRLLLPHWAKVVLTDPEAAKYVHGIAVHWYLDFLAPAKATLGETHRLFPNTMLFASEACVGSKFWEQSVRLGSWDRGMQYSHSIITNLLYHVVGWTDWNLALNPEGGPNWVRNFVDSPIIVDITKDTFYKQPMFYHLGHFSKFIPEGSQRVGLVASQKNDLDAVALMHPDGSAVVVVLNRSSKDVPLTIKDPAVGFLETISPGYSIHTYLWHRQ

GBA [3] = conditions: cited from earlier work
[4] = test system: glucosylsphingosine (GlcSph); assay: Glucosylsphingosine levels in treated zebrafish embryos; format: in vivo, Danio rerio; conditions: 0.1–10 μM inhibitor, zebrafish embryos treated 5 days
LPH = assay: In vivo LPH labeling in zebrafish larvae, competitive ABPP; conditions: 0.1–10 μM, 5 days in vivo
GBA2 = target: T2, GBA2 (Danio rerio, UniProt E7F5W0); assay: In vivo GBA2 inactivation in zebrafish larvae, ABP labeling; conditions: 0.1–10 μM, 5 days in vivo
T2 sequence (E7F5W0 1-851): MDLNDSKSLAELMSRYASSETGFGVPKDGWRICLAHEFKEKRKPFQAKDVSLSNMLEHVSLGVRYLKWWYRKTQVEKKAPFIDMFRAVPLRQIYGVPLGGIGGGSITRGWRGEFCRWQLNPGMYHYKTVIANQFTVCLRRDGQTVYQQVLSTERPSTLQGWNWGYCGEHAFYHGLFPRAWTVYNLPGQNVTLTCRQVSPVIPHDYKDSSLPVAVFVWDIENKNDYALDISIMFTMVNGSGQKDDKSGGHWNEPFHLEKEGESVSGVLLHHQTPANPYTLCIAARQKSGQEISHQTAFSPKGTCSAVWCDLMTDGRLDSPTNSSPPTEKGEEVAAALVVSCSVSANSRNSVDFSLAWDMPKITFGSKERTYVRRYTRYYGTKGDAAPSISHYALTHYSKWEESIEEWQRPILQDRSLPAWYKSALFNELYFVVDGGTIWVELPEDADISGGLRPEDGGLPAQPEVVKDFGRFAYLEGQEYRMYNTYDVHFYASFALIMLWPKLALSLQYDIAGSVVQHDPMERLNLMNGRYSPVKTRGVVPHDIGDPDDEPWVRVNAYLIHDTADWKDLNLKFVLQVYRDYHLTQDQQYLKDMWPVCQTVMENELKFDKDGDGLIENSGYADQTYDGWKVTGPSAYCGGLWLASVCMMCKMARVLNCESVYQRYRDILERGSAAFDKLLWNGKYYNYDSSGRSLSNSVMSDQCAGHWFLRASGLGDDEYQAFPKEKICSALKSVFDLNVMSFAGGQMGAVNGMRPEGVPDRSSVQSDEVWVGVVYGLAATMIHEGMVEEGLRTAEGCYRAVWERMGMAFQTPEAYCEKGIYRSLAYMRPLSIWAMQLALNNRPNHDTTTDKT

[5] = target: T1, recombinant human GBA (rGBA, Cerezyme); assay: In vitro inhibition of rGBA, 4-MU fluorogenic substrate assay; conditions: Apparent IC50, in vitro rGBA, 3 h preincubation, 2 nM enzyme
[6] = test system: lysosomal β-glucuronidase GUSB; assay: In vivo GUSB labeling in zebrafish larvae, competitive ABPP; conditions: 0.1–10 μM, 5 days in vivo
ER α-glucosidase GANAB = assay: In vivo GANAB labeling in zebrafish larvae, competitive ABPP; conditions: 0.1–10 μM, 5 days in vivo
GBA [7] = target: T3, GBA (Danio rerio, UniProt E7EZM1); assay: In vivo GBA inactivation in zebrafish larvae, quantified by ABP labeling; conditions: 0.1–10 μM, 5 days in vivo
T3 sequence (E7EZM1 20-518): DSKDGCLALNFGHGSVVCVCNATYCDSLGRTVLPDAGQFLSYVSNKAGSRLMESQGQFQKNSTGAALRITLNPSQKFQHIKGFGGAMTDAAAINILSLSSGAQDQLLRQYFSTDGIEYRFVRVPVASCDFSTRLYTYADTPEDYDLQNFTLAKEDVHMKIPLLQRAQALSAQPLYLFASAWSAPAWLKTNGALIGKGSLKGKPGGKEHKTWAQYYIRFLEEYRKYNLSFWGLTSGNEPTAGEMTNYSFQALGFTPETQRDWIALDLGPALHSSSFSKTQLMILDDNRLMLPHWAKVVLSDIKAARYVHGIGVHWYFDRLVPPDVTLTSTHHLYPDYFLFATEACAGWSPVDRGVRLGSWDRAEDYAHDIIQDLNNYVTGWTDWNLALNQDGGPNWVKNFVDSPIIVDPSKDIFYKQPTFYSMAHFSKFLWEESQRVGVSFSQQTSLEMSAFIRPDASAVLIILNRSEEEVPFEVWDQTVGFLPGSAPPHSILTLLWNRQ

GAA = target: T4, GAA (Danio rerio, UniProt A0A8M1QKP5); assay: In vivo GAA inactivation in zebrafish larvae, ABP labeling; conditions: 0.1–10 μM, 5 days in vivo
T4 sequence (A0A8M1QKP5 31-918): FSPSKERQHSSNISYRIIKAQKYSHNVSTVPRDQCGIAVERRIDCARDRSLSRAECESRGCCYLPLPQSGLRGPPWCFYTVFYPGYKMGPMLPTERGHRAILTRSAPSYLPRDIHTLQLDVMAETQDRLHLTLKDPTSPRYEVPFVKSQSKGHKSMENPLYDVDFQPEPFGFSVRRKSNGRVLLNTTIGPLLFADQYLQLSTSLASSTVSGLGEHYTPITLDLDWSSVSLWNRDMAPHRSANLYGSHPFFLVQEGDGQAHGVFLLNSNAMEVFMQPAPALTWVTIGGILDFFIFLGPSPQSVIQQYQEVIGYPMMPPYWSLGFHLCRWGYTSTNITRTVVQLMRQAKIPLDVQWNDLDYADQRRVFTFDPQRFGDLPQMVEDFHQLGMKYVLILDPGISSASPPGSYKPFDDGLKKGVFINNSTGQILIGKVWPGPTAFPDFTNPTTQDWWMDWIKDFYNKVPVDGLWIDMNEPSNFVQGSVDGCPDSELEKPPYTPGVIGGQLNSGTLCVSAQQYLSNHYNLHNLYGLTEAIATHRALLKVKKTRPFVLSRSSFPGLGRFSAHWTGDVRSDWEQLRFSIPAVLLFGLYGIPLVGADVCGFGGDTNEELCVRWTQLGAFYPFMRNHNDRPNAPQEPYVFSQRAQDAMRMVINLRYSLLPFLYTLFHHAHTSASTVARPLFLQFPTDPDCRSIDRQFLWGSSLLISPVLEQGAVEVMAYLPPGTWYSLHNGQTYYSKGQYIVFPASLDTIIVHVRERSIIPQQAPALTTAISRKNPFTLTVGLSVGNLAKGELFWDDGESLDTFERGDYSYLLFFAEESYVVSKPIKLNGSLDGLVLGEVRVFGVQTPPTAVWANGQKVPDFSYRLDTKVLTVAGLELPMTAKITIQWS

## O[C@H]1[C@H](O)[C@@H](O)[C@@H]2O[C@@H]2[C@@H]1O (racemic) [CBE 1, conduritol B epoxide]
[1]
  Ratio (in vitro) GAA/GBA: 444
[2]
  IC50: 4.28 µM

## OC[C@@H]1[C@@H](O)[C@H](O)[C@@H](O)[C@@H]2O[C@H]12 [CP 2, cyclophellitol]
GBA [3]
  GBA inhibition potency (in words): high nanomolar to micromolar

## O[C@@H]1[C@@H](O)[C@@H]2O[C@@H]2[C@H](Cn2cc(CCCOCc3ccc(-c4ccccc4)cc3)nn2)[C@H]1O [Compound 6, Biphenyl-cyclophellitol]
[4]
  Elevation in the level of glucosylsphingosine (GlcSph): 10–30 fold
LPH
  ABP labeling of LPH in lysates of treated zebrafish: not affected
GBA2
  ABP labeling of GBA2 in lysates of treated zebrafish: not affected
[5]
  IC50: 1 nM
[6]
  ABP labeling of GUSB in lysates of treated zebrafish: not affected
ER α-glucosidase GANAB
  ABP labeling of GANAB in lysates of treated zebrafish: not affected
GBA [7]
  ABP labeling of GBA with ABP 8 and ABP 5 in lysates of treated zebrafish: abrogated
GAA
  ABP labeling of GAA in lysates of treated zebrafish: not affected
